# Test results reported in US20190030048A1, “CASEIN MICELLES FOR NANOENCAPSULATION OF HYDROPHOBIC COMPOUNDS” (TECHNION RESEARCH AND DEVELOPMENT FOUNDATION LTD., priority 2006, published 2019).
# Several values for one entry are separate records, joined by “and”; a condition that tells them apart may be missing. Equal values may be shown once. Read-outs that look alike come from different tables or passages of the source.
# Tests used:
# [1] = Analytical fractionation (centrifugation) and RP-HPLC determination of vitamin D2 content in micelle pellet and serum; assay type: physicochemical; conditions: for recovered vitamin D2 found incorporated into the micelles (encapsulation efficiency): D2-rCM suspension
# Procedure: Micelle preparations were centrifuged at 20° C. and 25,000×g for one hour and the supernatant was separated from the pellet by decantation. The supernatant was then ultra-filtered using Amicon 8050 stirred ultrafiltration cell with a 10,000 Da nominal molecular weight limit membrane (Millipore). All fractions were collected and analyzed for vitamin D2 content.
# Each sample was then poured into a separatory funnel. […] After gentle mixing the phases were allowed to separate.
compound,measurement,setting,value
"C=C1CC[C@H](O)C/C1=C/C=C1\CCC[C@]2(C)[C@@H]([C@H](C)/C=C/[C@H](C)C(C)C)CC[C@@H]12 [vitamin D2, Vitamin D2]",vitamin concentration in the micelle pellet compared to the supernatant (serum),[1]; CM prepared by ultra-high pressure homogenization,4-5 times
same,vitamin content of pellet,"[1]; CM prepared by ultra-high pressure homogenization, pellet",30.3±0.4 micrograms/mL
same,vitamin content of supernatant,"[1]; CM prepared by ultra-high pressure homogenization, supernatant",6.7±0.7 micrograms/mL
same,recovered vitamin D2 found incorporated into the micelles (encapsulation efficiency),[1]; more typically,45-60%
same,recovered vitamin D2 found incorporated into the micelles (encapsulation efficiency),[1]; overall range,25-75%
same,vitamin D2 concentration in the rCM,"[1]; D2-rCM, micelle pellet",44 to 57 µg/mL
same,vitamin D2 concentration in serum,"[1]; D2-rCM, serum",2 to 8 µg/mL
same,vitamin D2 concentration in the rCM relative to its concentration in serum,"[1]; D2-rCM, more typically",4-10 times and 5-10 times
same,"Percent of vitamin D2 remaining, micelle pellet",0 h,100%
same,"Percent of vitamin D2 remaining, UV exposed serum (control II)","serum, 0 h",100%
same,"Percent of vitamin D2 remaining, serum","serum, 0 h",100%
same,"Percent of vitamin D2 remaining, UV exposed serum (control II)","serum, 3 h",0.11%
